This is an account of results in patent US6514981B1, “Methods of modulating tyrosine protein kinase function with indolinone compounds” (Sugen, Inc., priority 1998, dated 2003).

Structures are written as SMILES.

What all share (type): cell-based
For one assay, the target named is T1, Insulin Receptor (Homo sapiens, UniProt P06213).
T1 construct: expressed in transfected cells; host or cells: H25 cells (NIH3T3, ATCC No. 1658)
The experiment in a line: Insulin receptor phosphorylation assay in H25 cells (ELISA). As to conditions: insulin stimulation. The method, then: The following materials and reagents were used to measure phophotyrosine levels on the insulin receptor (indicating insulin receptor tyrosine kinase activity):
1. The preferred cell line was an NIH3T3 cell line (ATCC No. 1658) which overexpresses Insulin Receptor (H25 cells);
2. Resuspend the cells in fresh DMEM+10% FBS+2mM L-Glutamine, and transfer to 96-well tissue culture plate (Corning, 25806-96) at 20,000 cells/well (100 μL/well). The cells are then incubated for 1 day. Following such incubation, 0.01% serum medium (90/μL) replaces the old media and the cells incubate in 5% CO2 and 37° C. overnight.
1. Coat the ELISA plate (Corning 25805-96) with Anti-IR Antibody at 0.5 μg/well in 100 μL PBS at least 2 hours.
C. Assay Procedures 1. The drugs are tested in serum-free condition. 2. Dilute drug stock (in 100% DMSO) 1:10 with DMEM in 96-well poly-propylene plate, and transfer 10 μL/well of this solution to the cells to achieve final drug dilution 1:100, and final DMSO concentration of 1.0%. Incubate the cells in 5% CO2 at 37° C. for 2 hours.
4. After drug incubation for two hours, transfer 10 μL/well of 1 μM insulin in PBS to the cells (Final concentration=100 nM), and incubate at 5% CO2 at 37° C. for 10 minutes.
5. […]
The IC50 values measured in the insulin receptor phosphorylation assay for the compound of formula VI are depicted in Table 7: […]
In general terms: In an ELISA, binding on a coated surface is turned into a signal by an enzyme label.

The subject of the next assay is C6 cells. As to the kind of experiment: Growth of C6 cells (SRB). Conditions: Rattus norvegicus, 2%. An excerpt: The assay is the same as the assay set forth in EXAMPLE 10, except that C6 cells (ATCC 107) are used instead of A431 cells.
Compound of formula VI inhibited the growth rate of C6 cells as illustrated in Table 11.

The target in the next assay is human FLK-1 (Homo sapiens, UniProt P35968). The experiment in a line: FLK-1 receptor phosphorylation assay in cells (ELISA). Conditions: NIH3T3 C7#3 cells, VEGF stimulation.
Assay [1] deals with T2, chimeric receptor containing the EGFR extracellular domain and intracellular HER2 kinase domain (Homo sapiens, UniProt P04626).
T2 construct: P00533 (Epidermal growth factor receptor)
As to the kind of experiment: EGF receptor-HER2 phosphorylation assay in whole EGFR-NIH3T3 cells (ELISA). As to conditions: NIH3T3 cells with chimeric receptor, EGF stimulation. As for the experimental part:
HER2 kinase activity in whole EGFR-NIH3T3 cells was measured as described below. 1. Coat ELISA plates (Corning, 96 well, Cat. #25805-96) with 05-101 antibody at 0.5 µg per well in PBS, 100 μL final volume/well, and store overnight at 4° C. Coated plates are good for up to 10 days when stored at 4° C. 1. An NIH3T3 cell line overexpressing a chimeric receptor containing the EGFR extracellular domain and intracellular HER2 kinase domain can be used for this assay. 3. Resuspend cells in seeding medium (DMEM, 0.5% bovine serum), and count the cells using trypan blue. Viability above 90% is acceptable. Seed cells in DMEM medium (0.5% bovine serum) at a density of 10,000 cells per well, 100 μL per well, in a 96 well microtiter plate. Incubate seeded cells in 5% CO2 at 37° C. for about 40 hours. 1. Check seeded cells for contamination using an inverted microscope. […] The maximum phosphotyrosine signal is determined by subtracting the value of the negative controls from the positive controls. The percent inbibitation of phosphotyrosine content for extract-containing wells is then calculated, after subtraction of the negative controls. The IC50 values measured in the EGF receptor-HER2 phosphorylation assay for the compound of formula VI are depicted in Table 6: […]

T1 sequence (P06213 28-1382, species assumed): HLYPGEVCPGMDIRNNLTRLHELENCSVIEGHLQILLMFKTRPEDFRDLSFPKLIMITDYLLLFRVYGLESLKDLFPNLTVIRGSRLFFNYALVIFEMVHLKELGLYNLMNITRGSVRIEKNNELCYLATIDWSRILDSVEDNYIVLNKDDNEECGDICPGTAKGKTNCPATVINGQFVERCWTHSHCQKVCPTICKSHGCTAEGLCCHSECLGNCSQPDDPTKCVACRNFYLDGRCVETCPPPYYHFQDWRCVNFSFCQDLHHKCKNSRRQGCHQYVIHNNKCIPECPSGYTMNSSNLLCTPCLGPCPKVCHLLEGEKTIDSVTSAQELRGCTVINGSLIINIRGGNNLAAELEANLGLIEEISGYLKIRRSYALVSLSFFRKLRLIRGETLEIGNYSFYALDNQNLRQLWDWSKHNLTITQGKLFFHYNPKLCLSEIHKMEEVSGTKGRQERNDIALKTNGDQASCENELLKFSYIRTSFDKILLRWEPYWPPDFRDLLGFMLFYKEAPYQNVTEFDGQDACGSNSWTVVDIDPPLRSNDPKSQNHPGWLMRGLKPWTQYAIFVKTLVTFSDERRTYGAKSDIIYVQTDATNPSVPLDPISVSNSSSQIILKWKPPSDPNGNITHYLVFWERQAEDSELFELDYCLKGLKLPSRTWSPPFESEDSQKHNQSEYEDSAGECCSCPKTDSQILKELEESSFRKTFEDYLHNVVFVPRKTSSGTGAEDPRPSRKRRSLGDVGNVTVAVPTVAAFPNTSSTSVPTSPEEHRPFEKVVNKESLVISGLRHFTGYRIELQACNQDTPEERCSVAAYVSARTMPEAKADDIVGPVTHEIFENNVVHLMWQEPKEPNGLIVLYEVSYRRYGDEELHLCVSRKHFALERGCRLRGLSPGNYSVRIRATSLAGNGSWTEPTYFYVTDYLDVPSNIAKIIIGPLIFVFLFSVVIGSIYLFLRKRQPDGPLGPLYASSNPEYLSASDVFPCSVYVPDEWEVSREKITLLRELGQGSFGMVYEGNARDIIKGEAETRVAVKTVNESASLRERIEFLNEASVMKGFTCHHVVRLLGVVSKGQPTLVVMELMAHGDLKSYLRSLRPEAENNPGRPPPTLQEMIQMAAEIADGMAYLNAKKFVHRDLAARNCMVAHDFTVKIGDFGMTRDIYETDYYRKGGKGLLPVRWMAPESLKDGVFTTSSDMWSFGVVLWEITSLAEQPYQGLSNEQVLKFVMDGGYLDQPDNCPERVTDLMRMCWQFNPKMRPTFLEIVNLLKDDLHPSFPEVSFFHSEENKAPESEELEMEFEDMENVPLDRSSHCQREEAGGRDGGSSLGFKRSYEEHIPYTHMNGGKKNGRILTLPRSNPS
T2 sequence (P04626 720-987 limits assumed, change not shown): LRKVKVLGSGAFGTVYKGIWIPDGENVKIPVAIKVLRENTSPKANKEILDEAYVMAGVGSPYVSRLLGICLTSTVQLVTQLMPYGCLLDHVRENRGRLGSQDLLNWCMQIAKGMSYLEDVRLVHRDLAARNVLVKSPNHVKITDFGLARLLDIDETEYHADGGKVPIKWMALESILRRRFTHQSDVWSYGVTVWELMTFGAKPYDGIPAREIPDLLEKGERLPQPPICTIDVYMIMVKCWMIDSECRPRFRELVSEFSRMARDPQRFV

By IC50 is commonly meant the concentration that gives 50% inhibition. Turning to `Cc1cc(/C=C2/C(=O)Nc3ccccc32)c(C)c2c1[nH]c1ccccc12` [VI], the IC50 was determined as 21.9 µM on Insulin Receptor, 1.55 µM with C6 cells, 4.84 µM against human FLK-1 and 8.72 µM in assay [1].
